Assay results published in patent publication US6093732A, “4-hydroxyquinoline-3-carboxamides and hydrazides as antiviral agents” (Pharmacia & Upjohn Company, priority 1998, dated 2000).
Structures can show the parent of a compound that is named as a salt.

Biological target: T1, HCMV polymerase (Human cytomegalovirus, UniProt P08546)
T1 construct: made in house; host or cells: recombinant baculovirus-infected SF-9 cells
Assay: HCMV polymerase scintillation proximity assay (SPA), modified version
Format: biochemical
Conditions: CMV polymerase; Table 1; modified assay with 4.5 mM DTT, compounds in 100% DMSO; read-out: Antiviral Selective Polymerase IC50 Values, CMV
Method: The HCMV polymerase assay is performed using a scintillation proximity assay (SPA) as described in several references, such as N. D. Cook, et al., Pharmaceutical Manufacturing International, pages 49-53 (1992); K. Takeuchi, Laboratory Practice, September issue (1992); U.S. Pat. No. 4,568,649 (1986); which are incorporated by reference herein. Reactions are performed in 96-well plates. The assay is conducted in 100 μl volume with 5.4 mM HEPES (pH 7.5), 11.7 mM KCl, 4.5 mM MgCl2, 0.36 mg/ml BSA, and 90 nM ^3 H-dTTP. Assays are run with and without CHAPS, (3-[(3-Cholamidopropyl)-dimethylammonio]-1-propane-sulfonate) at a final concentration of 2 mM. HCMV polymerase is diluted in enzyme dilution buffer containing 50% glycerol, 250 mM NaCl, 10 mM HEPES (pH 7.5), 100 μg/ml BSA, and 0.01% sodium azide. The HCMV polymerase, which is expressed in recombinant baculovirus-infected SF-9 cells and purified according to literature procedures, is added at 10% (or 10 μl) of the final reaction volume, i.e., 100 μl. Compounds are diluted in 50% DMSO and 10 μl are added to each well. Control wells contain an equivalent concentration of DMSO. Unless noted otherwise, reactions are initiated via the addition of 6 nM biotinylated poly(dA)-oligo(dT) template/primer to reaction mixtures containing the enzyme, substrate, and compounds of interest. Plates are incubated in a 25° C. or 37° C. H2 O bath and terminated via the addition of 40 μl/reaction of 0.5 M EDTA (pH 8) per well. Reactions are terminated within the time-frame during which substrate incorporation is linear and varied depending upon the enzyme and conditions used, i.e., 30 min. for HCMV polymerase. Ten μl of streptavidin-SPA beads (20 mg/ml in PBS/10% glycerol) are added following termination of the reaction. Plates are incubated 10 min. at 37° C., then equilibrated to room temperature, and counted on a Packard Topcount. Linear regressions are performed and IC50 's are calculated using computer software.
A modified version of the above HCMV polymerase assay is performed as described above, but with the following changes: Compounds are diluted in 100% DMSO until final dilution into assay buffer. In the previous assay, compounds are diluted in 50% DMSO. 4.5 mM dithiotherotol (DTT) is added to the polymerase buffer. […] Other viral polymerase assays are performed using procedures similar to those described above.

T1 sequence (P08546 whole entry): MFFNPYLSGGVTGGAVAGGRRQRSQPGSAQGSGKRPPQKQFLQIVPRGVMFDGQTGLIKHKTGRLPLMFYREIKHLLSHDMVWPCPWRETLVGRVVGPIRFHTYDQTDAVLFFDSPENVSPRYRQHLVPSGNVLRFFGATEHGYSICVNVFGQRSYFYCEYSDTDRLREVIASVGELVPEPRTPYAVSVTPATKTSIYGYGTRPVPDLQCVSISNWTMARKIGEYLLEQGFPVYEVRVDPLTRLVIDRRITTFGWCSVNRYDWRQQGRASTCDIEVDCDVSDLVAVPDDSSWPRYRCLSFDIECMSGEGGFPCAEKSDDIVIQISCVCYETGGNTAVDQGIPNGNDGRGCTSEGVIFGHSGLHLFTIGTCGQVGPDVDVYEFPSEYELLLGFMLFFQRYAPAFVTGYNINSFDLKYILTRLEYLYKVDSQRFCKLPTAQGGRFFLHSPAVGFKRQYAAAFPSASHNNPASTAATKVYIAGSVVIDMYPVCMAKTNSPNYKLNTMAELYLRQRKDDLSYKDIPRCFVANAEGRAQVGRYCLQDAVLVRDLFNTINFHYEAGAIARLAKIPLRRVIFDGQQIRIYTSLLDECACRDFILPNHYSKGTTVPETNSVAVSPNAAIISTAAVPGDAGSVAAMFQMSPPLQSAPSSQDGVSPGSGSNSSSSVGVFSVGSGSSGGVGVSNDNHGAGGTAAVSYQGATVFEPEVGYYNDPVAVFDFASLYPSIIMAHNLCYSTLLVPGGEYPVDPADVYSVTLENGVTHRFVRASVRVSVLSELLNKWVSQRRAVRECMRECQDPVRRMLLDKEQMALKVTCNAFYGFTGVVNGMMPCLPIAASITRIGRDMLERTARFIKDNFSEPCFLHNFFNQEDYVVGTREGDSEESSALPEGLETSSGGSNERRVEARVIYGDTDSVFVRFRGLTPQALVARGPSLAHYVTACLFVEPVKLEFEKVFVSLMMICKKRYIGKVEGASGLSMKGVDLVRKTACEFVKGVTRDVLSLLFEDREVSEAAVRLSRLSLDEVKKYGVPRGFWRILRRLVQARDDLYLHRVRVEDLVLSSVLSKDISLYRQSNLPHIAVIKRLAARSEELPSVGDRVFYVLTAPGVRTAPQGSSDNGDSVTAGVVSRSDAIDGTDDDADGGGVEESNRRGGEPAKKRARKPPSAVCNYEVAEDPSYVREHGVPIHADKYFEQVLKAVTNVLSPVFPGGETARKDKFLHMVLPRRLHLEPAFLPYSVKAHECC

## O=C(NCc1ccc(Cl)cc1)c1cnc2c(F)cc(C#Cc3ccccn3)cc2c1O [Example 92, N-(4-Chlorobenzyl)-8-fluoro-4-hydroxy-6-[2-(2-pyridinyl)ethynyl]-3-quinolinecarboxamide]
  IC50: 20.6 µM

## O=C(NCc1ccc(Cl)cc1)c1cnc2c(F)cc(C#CCCO)cc2c1O [Example 94, N-(4-Chlorobenzyl)-8-fluoro-4-hydroxy-6-(4-hydroxy-1-butynyl)-3-quinolinecarboxamide]
  IC50: 5.3 µM

## COCC#Cc1cc(F)c2ncc(C(=O)NCc3ccc(Cl)cc3)c(O)c2c1 [Example 95, N-(4-Chlorobenzyl)-8-fluoro-4-hydroxy-6-(3-methoxy-1-propynyl)-3-quinolinecarboxamide]
  IC50: 1.9 µM

## CC(O)C#Cc1cc(F)c2ncc(C(=O)NCc3ccc(Cl)cc3)c(O)c2c1 (stereo not shown) [Example 96, N-(4-Chlorobenzyl)-8-fluoro-4-hydroxy-6-(3-hydroxy-1-butynyl)-3-quinolinecarboxamide]
  IC50: 4.5 µM

## O=C(NCc1ccc(Cl)cc1)c1cnc2c(F)cc(-c3cc(Br)cs3)cc2c1O [Example 97, 6-(4-Bromo-2-thienyl)-N-(4-chlorobenzyl)-8-fluoro-4-hydroxy-3-quinolinecarboxamide]
  IC50: 18.6 µM

## NNC(=S)c1cc(F)c2ncc(C(=O)NCc3ccc(Cl)cc3)c(O)c2c1 [Example 98, N-(4-Chlorobenzyl)-8-fluoro-6-(hydrazinocarbothioyl)-4-hydroxy-3-quinolinecarboxamide]
  IC50: 1.3 µM

## Cc1nnc(-c2cc(F)c3ncc(C(=O)NCc4ccc(Cl)cc4)c(O)c3c2)s1 [Example 100, N-(4-Chlorobenzyl)-8-fluoro-4-hydroxy-6-(5-methyl-1,3,4-thiadiazol-2-yl)-3-quinolinecarboxamide]
  IC50: 6.7 µM

## O=C(NCc1ccc(Cl)cc1)c1cnc2cc(C#CCO)ccc2c1O [Example 101, N-(4-Chlorobenzyl)-4-hydroxy-7-(3-hydroxy-1-propynyl)-3-quinolinecarboxamide]
  IC50: 25.8 µM

## NC(=S)c1ccc2c(O)c(C(=O)NCc3ccc(Cl)cc3)cnc2c1 [Example 102, 7-(Aminocarbothioyl)-N-(4-chlorobenzyl)-4-hydroxy-3-quinoline-carboxamide]
  IC50: 4.6 µM

## COCCCc1cc(F)c2ncc(C(=O)NCc3ccc(Cl)cc3)c(O)c2c1 [Example 103, N-(4-Chlorobenzyl)-8-fluoro-4-hydroxy-6-(3-methoxypropyl)-3-quinolinecarboxamide]
  IC50: 2.5 µM

## O=C(NCc1ccc(Cl)cc1)c1cnc2c(F)cc(/C=C\CCO)cc2c1O [Example 104, N-(4-Chlorobenzyl)-8-fluoro-4-hydroxy-6-[(Z)-4-hydroxy-1-butenyl]-3-quinolinecarboxamide]
  IC50: < 0.78 µM

## N#CCCCCCc1cc(F)c2ncc(C(=O)NCc3ccc(Cl)cc3)c(O)c2c1 [Example 105, N-(4-Chlorobenzyl)-6-(5-cyanopentyl)-8-fluoro-4-hydroxy-3-quinolinecarboxamide]
  IC50: 10.4 µM

## O=C(NCc1ccc(Cl)cc1)c1cnc2c(F)cc(C#CCCCO)cc2c1O [Example 107, N-(4-Chlorobenzyl)-8-fluoro-4-hydroxy-6-(5-hydroxy-1-pentynyl)-3-quinolinecarboxamide]
  IC50: 5.4 µM

## CN(CCCc1cc(F)c2ncc(C(=O)NCc3ccc(Cl)cc3)c(O)c2c1)Cc1ccccc1 [Example 108, 6-{3-[Benzyl(methyl)amino]propyl}-N-(4-chlorobenzyl)-8-fluoro-4-hydroxy-3-quinolinecarboxamide]
  IC50: 6.5 µM

## COC(=O)c1cc(F)c2ncc(C(=O)NCc3ccc(Cl)cc3)c(O)c2c1 [Example 109, Methyl 3-{[(4-chlorobenzyl)amino]carbonyl}-8-fluoro-4-hydroxy-6-quinolinecarboxylate]
  IC50: 11 µM

## O=C(NCc1ccc(Cl)cc1)c1cnc2c(F)cc(CCCO)cc2c1O [Example 110, N-(4-Chlorobenzyl)-8-fluoro-4-hydroxy-6-(3-hydroxypropyl)-3-quinolinecarboxamide]
  IC50: 0.28 µM

## O=C(NCc1ccc(Cl)cc1)c1cnc2cc(CCCO)ccc2c1O [Example 111, N-(4-Chlorobenzyl)-4-hydroxy-7-(3-hydroxypropyl)-3-quinoline-carboxamide]
  IC50: 2.6 µM

## CCOC(=O)/C=C/c1cc(F)c2ncc(C(=O)NCc3ccc(Cl)cc3)c(O)c2c1 [Example 112, Ethyl (E)-3-(3-{[(4-chlorobenzyl)amino]carbonyl}-8-fluoro-4-hydroxy-6-quinolinyl)-2-propenoate]
  IC50: 14 µM

## O=C(O)/C=C/c1cc(F)c2ncc(C(=O)NCc3ccc(Cl)cc3)c(O)c2c1 [Example 113, (E)-3-(3-{[(4-Chlorobenzyl)amino]carbonyl}-8-fluoro-4-hydroxy-6-quinolinyl)-2-propenoic acid]
  IC50: 10.4 µM

## O=C(O)CCc1cc(F)c2ncc(C(=O)NCc3ccc(Cl)cc3)c(O)c2c1 [Example 114, 3-(3-{[(4-Chlorobenzyl)amino]carbonyl}-8-fluoro-4-hydroxy-6-quinolinyl)propanoic acid]
  IC50: 2.2 µM

## O=C(O)CCC#Cc1cc(F)c2ncc(C(=O)NCc3ccc(Cl)cc3)c(O)c2c1 [Example 115, 5-(3-{[(4-Chlorobenzyl)amino]carbonyl}-8-fluoro-4-hydroxy-6-quinolinyl)-4-pentynoic acid]
  IC50: 6.1 µM

## O=C(NCc1ccc(Cl)cc1)c1cnc2ccc3[nH]ncc3c2c1O [Example 116]
  IC50: 16.5 µM

## COc1cc(I)cc2c(O)c(C(=O)NCc3ccc(Cl)cc3)cnc12 [Example 117, N-(4-Chlorobenzyl)-4-hydroxy-6-iodo-8-methoxy-3-quinolinecarboxamide]
  IC50: 8.7 µM

## O=C(NCc1ccc(Cl)cc1)c1cnc2c(C(F)(F)F)cc(C#CCO)cc2c1O [Example 121, N-(4-Chlorobenzyl)-4-hydroxy-6-(3-hydroxy-1-propynyl)-8-(trifluoromethyl)-3-quinolinecarboxamide]
  IC50: 15 µM

## O=C(NCc1ccc(Cl)cc1)c1cnc2c(OC(F)(F)F)cc(C#CCO)cc2c1O [Example 122, N-(4-Chlorobenzyl)-4-hydroxy-6-(3-hydroxy-1-propynyl)-8-(trifluoromethoxy)-3-quinolinecarboxamide]
  IC50: 1.8 µM

## O=C(NCc1ccc(Cl)cc1)c1cnc2c(C(F)(F)F)cc(CCCO)cc2c1O [Example 123, N-(4-Chlorobenzyl)-4-hydroxy-6-(3-hydroxypropyl)-8-(trifluoromethyl)-3-quinolinecarboxamide]
  IC50: 2.2 µM

## CSCC#Cc1cc(F)c2ncc(C(=O)NCc3ccc(Cl)cc3)c(O)c2c1 [Example 126, N-[(4-Chlorophenyl)methyl]-8-fluoro-4-hydroxy-6-[3-(methylthio)-1-propynyl]-3-quinolinecarboxamide]
  IC50: 19.7 µM

## CCSCC#Cc1cc(F)c2ncc(C(=O)NCc3ccc(Cl)cc3)c(O)c2c1 [Example 127, N-[(4-Chlorophenyl)methyl]-6-[3-(ethylthio)-1-propynyl]-8-fluoro-4-hydroxy-3-quinolinecarboxamide]
  IC50: 23.5 µM

## CSC/C=C\c1cc(F)c2ncc(C(=O)NCc3ccc(Cl)cc3)c(O)c2c1 [Example 128, N-[(4-Chlorophenyl)methyl]-8-fluoro-4-hydroxy-6-[(1Z)-3-(methylthio)-1-propenyl]-3-quinolinecarboxamide]
  IC50: 0.46 µM

## CCSC/C=C\c1cc(F)c2ncc(C(=O)NCc3ccc(Cl)cc3)c(O)c2c1 [Example 129, N-[(4-Chlorophenyl)methyl]-6-[(1Z)-3-(ethylthio)-1-propenyl]-8-fluoro-4-hydroxy-3-quinolinecarboxamide]
  IC50: 1 µM

## CSCCCc1cc(F)c2ncc(C(=O)NCc3ccc(Cl)cc3)c(O)c2c1 [Example 130, N-[(4-Chlorophenyl)methyl]-8-fluoro-4-hydroxy-6-[3-(methylthio)propyl]-3-quinolinecarboxamide]
  IC50: 1.1 µM

## O=COCC#Cc1cc(F)c2ncc(C(=O)NCc3ccc(Cl)cc3)c(O)c2c1 [Example 131, 3-(3-{[(4-Chlorobenzyl)amino]carbonyl}-8-fluoro-4-hydroxy-6-quinolinyl)-2-propynyl formate]
  IC50: 1.8 µM

## CC(O)CCc1cc(F)c2ncc(C(=O)NCc3ccc(Cl)cc3)c(O)c2c1 (stereo not shown) [Example 132, N-(4-Chlorobenzyl)-8-fluoro-4-hydroxy-6-(3-hydroxybutyl)-3-quinolinecarboxamide]
  IC50: 0.64 µM

## O=C(NCc1ccc(Cl)cc1)c1c[nH]c2ccc(/C=C\CO)cc2c1=O [Example 135, N-[(4-Chlorophenyl)methyl]-1,4-dihydro-6-[(1Z)-3-hydroxy-1-propenyl]-4-oxo-3-quinolinecarboxamide]
  IC50: 0.78 µM
